Here are results for 5 compounds from ChEMBL document CHEMBL1150925, “Gibbilimbols A-D, cytotoxic and antibacterial alkenylphenols from Piper gibbilimbum” (J Nat Prod, 1998).

≈ marks a conversion by molar mass, not a printed value. Calls of active or inactive are those of the source. The calls are words filed in the database; no cut-off is given here. Where only a bound is given, the exact number is not on record here.

Data set [1] is described as follows: Toxicity in Artemia salina. The format is organism-based. As to conditions: in vivo, read-out: LD50 (the source's name).
Data set [2] has as its system KB. The data set can be described thus: Cytotoxicity against human KB cells. In kind it is functional. As to conditions: read-out: ED50 (the source's name).
Data set [3] deals with Staphylococcus epidermidis. Nature of the data set: Antibacterial activity against Staphylococcus epidermidis at 60 ug/disk by paper disk diffusion technique. In kind it is functional. As to conditions: read-out: IZ.
Data set [4] relates to Bacillus cereus. The data set can be described thus: Antibacterial activity against Bacillus cereus at 60 ug/disk by paper disk diffusion technique. In kind it is functional. To be noted: read-out: IZ. A general note: In agar diffusion tests the substance spreads into inoculated agar from a disc or well.
Data set [5] concerns Pseudomonas aeruginosa. The data set can be described thus: Antibacterial activity against Pseudomonas aeruginosa at 60 ug/disk by paper disk diffusion technique. In kind it is functional, organism-based.
Data set [6] concerns Staphylococcus epidermidis. The data set can be described thus: Antibacterial activity against Staphylococcus epidermidis after 24 hrs by broth microdilution method. The format is functional. (In broth dilution the organism is exposed to a series of concentrations in liquid medium.)
The test system of data set [7] is Bacillus cereus. Nature of the data set: Antibacterial activity against Bacillus cereus after 24 hrs by broth microdilution method. The format is functional.

As usually defined, the MIC is the lowest concentration that inhibits growth of the organism. High values mean a need for much substance, low ones inhibition by little substance. As for `CCCCCC/C=C/CCc1ccc(O)cc1` [GIBBILIMBOL B], in data set [1], the LC50 was determined as 4.9 µg/mL (≈ 21.1 µM). The EC50 in data set [2] worked out at 3.9 µg/mL (≈ 16.8 µM). Moreover, the zone of inhibition at 60 µg/disc in data set [3] and in data set [4] was less than 2 mm each time. Besides, the result in data set [5] was inactive. Moreover, the MIC in data set [6] is 2 µg/mL (≈ 8.61 µM); in data set [7], 4 µg/mL (≈ 17.2 µM).

For the compound `CCC/C=C/CCCc1ccc(O)cc1` [GIBBILIMBOL C], in data set [1], the LC50 came out at 5.5 µg/mL (≈ 26.9 µM). In addition, the EC50 in data set [2] is 7.8 µg/mL (≈ 38.2 µM). In addition, the zone of inhibition at 60 µg/disc in data set [3] and in data set [4] was less than 2 mm throughout. In data set [5], the outcome was inactive. Also, the minimum inhibitory concentration (MIC) in data set [6] and in data set [7] was 2 µg/mL (≈ 9.79 µM) each time.

Take `CCCC/C=C/CCc1ccc(O)cc1` [GIBBILIMBOL D]: in data set [1], the LC50 was 5 µg/mL (≈ 24.5 µM). The EC50 in data set [2] came out at 2.1 µg/mL (≈ 10.3 µM). Further, the zone of inhibition at 60 µg/disc in data set [3] and in data set [4] was less than 2 mm throughout. In data set [5], the outcome was inactive. Moreover, the MIC in data set [6] and in data set [7] was 2 µg/mL (≈ 9.79 µM) in each case.

Regarding `O=C(N[C@H](CO)[C@H](O)c1ccc([N+](=O)[O-])cc1)C(Cl)Cl` [CHLORAMPHENICOL], the MIC in data set [6] turned out to be 8 µg/mL (≈ 24.8 µM); in data set [7] it was 4 µg/mL (≈ 12.4 µM).

Consider `CCCCC/C=C/CCCc1ccc(O)cc1` [GIBBILIMBOL A], for which the LC50 in data set [1] was 5.3 µg/mL (≈ 22.8 µM). Moreover, in data set [2], the EC50 was determined as 4.4 µg/mL (≈ 18.9 µM). Further, the zone of inhibition at 60 µg/disc in data set [3] and in data set [4] was less than 2 mm throughout. Moreover, the outcome in data set [5] was inactive. Also, the MIC in data set [6] and in data set [7] was 4 µg/mL (≈ 17.2 µM) throughout.
